Measured values reported in patent US20260015350A1, “AZAQUINAZOLINE PAN-KRAS INHIBITORS” (Mirati Therapeutics, Inc., priority 2022, published 2026).

Experiments:
KRas^G12D = molecular target: T1, KRas^G12D (Homo sapiens, UniProt P01116, G12D); test: KRas binding assay (TR-FRET tracer displacement), KRas G12D
T1 construct: Biotinylated KRas (corresponding to amino acids 1-169, produced at Accelegan Inc.); biotin (biotinylated); purchased Accelegan Inc

KRas^G12R = molecular target: T2, KRas^G12R (Homo sapiens, UniProt P01116, G12R); test: KRas binding assay (TR-FRET tracer displacement), KRas G12R
T2 construct: Biotinylated KRas (corresponding to amino acids 1-169, produced at Accelegan Inc.); biotin (biotinylated); purchased Accelegan Inc

KRas^G12V = molecular target: T3, KRas^G12V (Homo sapiens, UniProt P01116, G12V); test: KRas binding assay (TR-FRET tracer displacement), KRas G12V
T3 construct: Biotinylated KRas (corresponding to amino acids 1-169, produced at Accelegan Inc.); biotin (biotinylated); purchased Accelegan Inc

[1] = test system: KRas-mediated phosphorylation of ERK in H727 cells; test: Inhibition of KRas-mediated phosphorylation of ERK (Cisbio HTRF pERK), H727 cells; format: cell-based; conditions: Homo sapiens, NCI-H727, H727 cells; HTRF pERK
Experimental: (§1) Inhibition of KRas Phosphorylation of ERK (HTRF) by Exemplary Compounds of Formula (I) Cisbio HTRF Advanced PERK Assay Catalog #64[…] […] Add 10 mL of media to stop trypsinizing. Pipette the cells into a conical bottom 50 mL centrifuge tube and centrifuge 5 min×1000 rpm. […] Re-suspend the cell pellet in media, take a cell count, and then adjust the cell density using fresh media. […] Seed 6,000 cells into cell culture plate with 50 μL media. […] Use Tecan to complete the compound addition. Compounds start from 10 uM top, 3-fold dilution, and 10 doses. The final DMSO concentration is 0.8%. Dispensed 0.2 uM Trametinib as Min control. […] Incubate cell plate for 3 hrs in the incubator. […] Dilute 1 volume of 4× lysis buffer with 3 volumes of deionized water. […] Keep lysis buffer on the ice. […] At the end of the compound treatment, flick-off the media. […] Add 35 μL of lysis buffer per well using a Multidrop Combi. Then place on a plate agitator shaking at 300 rpm at 4° C. for 40 mins. […] Make up the HTRF antibody buffer. For each assay plate, mix 50 μL of d2-conjugate antibody with 950 μL of detection buffer. Similarly, mix 50 μL of Cryptate antibody with 950 μL of detection buffer. Then mix the two diluted antibodies together. […] Dispense 3.4 μL the antibody buffer to wells of an empty assay plate. Seal the plate and centrifuge plate 30 sec×1000 rpm. […] At the end of the 4° C. lysis, centrifuge the lysate plates 3 mins×1500 rpm. […] Use the Bravo to transfer 13.6 μL of lysate from cell culture plate to assay plate. Then incubate assay plate for 2 hrs at room temperature. 8. At the end of incubation, read plate on the Envision after centrifuging plate 30 sec×1000 rpm.

[2] = test system: KRas-mediated phosphorylation of ERK in AsPC-1 cells; test: Inhibition of KRas-mediated phosphorylation of ERK (Cisbio HTRF pERK), AsPC-1 cells; format: cell-based; conditions: Homo sapiens, ASPC1, AsPC-1 cells; HTRF pERK
Experimental: as §1

T1 sequence (P01116 1-169 isoform P01116-2 G12D): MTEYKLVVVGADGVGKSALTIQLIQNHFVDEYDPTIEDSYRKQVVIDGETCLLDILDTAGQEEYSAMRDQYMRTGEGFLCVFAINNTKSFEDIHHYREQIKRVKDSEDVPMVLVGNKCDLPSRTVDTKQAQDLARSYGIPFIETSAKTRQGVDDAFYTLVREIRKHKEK
T2 sequence (P01116 1-169 isoform P01116-2 G12R): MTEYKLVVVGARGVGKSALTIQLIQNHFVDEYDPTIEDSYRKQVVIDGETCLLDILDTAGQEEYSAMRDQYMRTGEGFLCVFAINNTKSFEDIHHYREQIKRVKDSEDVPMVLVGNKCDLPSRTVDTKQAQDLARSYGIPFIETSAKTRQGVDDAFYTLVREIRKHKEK
T3 sequence (P01116 1-169 isoform P01116-2 G12V): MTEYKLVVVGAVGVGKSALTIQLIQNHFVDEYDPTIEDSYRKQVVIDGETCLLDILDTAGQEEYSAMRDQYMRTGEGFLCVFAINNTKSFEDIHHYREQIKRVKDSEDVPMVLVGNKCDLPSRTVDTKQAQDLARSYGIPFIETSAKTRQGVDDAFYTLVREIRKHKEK

SMILES | IC50 (KRas^G12D) [nM] | IC50 (KRas^G12R) [nM] | IC50 (KRas^G12V) [nM] | IC50 [1] [nM] | IC50 [2] [nM]
CCc1cccc2cccc(-c3ncc4c(C5CCCOCC5)nc(OCC56CCCN5CCC6)nc4c3F)c12 (racemic) [Example 723, rac-(R)-7-(8-ethylnaphthalen-1-yl)-8-fluoro-4-(oxepan-4-yl)-2-((tetrahydro-1H-pyrrolizin-7a(5H)-yl)methoxy)pyrido[4,3-d]pyrimidine] | > 100000 | 27500 | 42800 | – | –
Fc1c(-c2cccc3cccc(F)c23)ncc2c(C3=CCCCC3)nc(OCC34CCCN3CCC4)nc12 [Example 524, 4-(cyclohex-1-en-1-yl)-8-fluoro-7-(8-fluoronaphthalen-1-yl)-2-((hexahydro-1H-pyrrolizin-7a-yl)methoxy)pyrido[4,3-d]pyrimidine] | > 100000 | > 100000 | 70900 | – | –
CCc1c(F)ccc2cc(O)cc(-c3ncc4c(NCc5c[nH]nc5NC(=O)C5COC5)nc(OC[C@@]56CCCN5C[C@H](F)C6)nc4c3F)c12 [Example 649, N-(4-(((7-(8-ethyl-7-fluoro-3-hydroxynaphthalen-1-yl)-8-fluoro-2-(((2R,7aS)-2-fluorohexahydro-1H-pyrrolizin-7a-yl)methoxy)pyrido[4,3-d]pyrimidin-4-yl)amino)methyl)-1H-pyrazol-3-yl) oxetane-3-carboxamide] | 85 | 38 | 9 | – | –
CCc1c(F)ccc2cc(O)cc(-c3ncc4c(NCc5cc(C(=O)N(C)C)n(CC#N)n5)nc(OC[C@@]56CCCN5C[C@H](F)C6)nc4c3F)c12 [Example 658, 1-(cyanomethyl)-3-(((7-(8-ethyl-7-fluoro-3-hydroxynaphthalen-1-yl)-8-fluoro-2-(((2R,7aS)-2-fluorotetrahydro-1H-pyrrolizin-7a(5H)-yl)methoxy)pyrido[4,3-d]pyrimidin-4-yl)amino)methyl)-N,N-dimethyl-1H-pyrazole-5-carboxamide] | 224 | 65 | 7 | – | –
CCc1c(F)ccc2cc(O)cc(-c3ncc4c(NCc5cc(C(=O)N(C)C)nn5CCC#N)nc(OC[C@@]56CCCN5C[C@H](F)C6)nc4c3F)c12 [Example 669, 1-(2-cyanoethyl)-5-(((7-(8-ethyl-7-fluoro-3-hydroxynaphthalen-1-yl)-8-fluoro-2-(((2R,7aS)-2-fluorohexahydro-1H-pyrrolizin-7a-yl)methoxy)pyrido[4,3-d]pyrimidin-4-yl)amino)methyl)-N,N-dimethyl-1H-pyrazole-3-carboxamide] | – | – | – | 4510 | > 10000
CCc1c(F)ccc2cc(O)cc(-c3ncc4c(NCc5cc(C(=O)N(C)C)nn5CC5COC5)nc(OC[C@@]56CCCN5C[C@H](F)C6)nc4c3F)c12 [Example 683, 5-(((7-(8-ethyl-7-fluoro-3-hydroxynaphthalen-1-yl)-8-fluoro-2-(((2R,7aS)-2-fluorohexahydro-1H-pyrrolizin-7a-yl)methoxy)pyrido[4,3-d]pyrimidin-4-yl)amino)methyl)-N,N-dimethyl-1-(oxetan-3-ylmethyl)-1H-pyrazole-3-carboxamide] | – | – | – | > 10000 | > 10000
CCc1c(F)ccc2cc(O)cc(-c3ncc4c(NCc5cc(C(=O)N(C)C)n(CC6COC6)n5)nc(OC[C@@]56CCCN5C[C@H](F)C6)nc4c3F)c12 [Example 684A, 3-(((7-(8-ethyl-7-fluoro-3-hydroxynaphthalen-1-yl)-8-fluoro-2-(((2R,7aS)-2-fluorohexahydro-1H-pyrrolizin-7a-yl)methoxy)pyrido[4,3-d]pyrimidin-4-yl)amino)methyl)-N,N-dimethyl-1-(oxetan-3-ylmethyl)-1H-pyrazole-5-carboxamide] | – | – | – | > 10000 | > 10000
CCc1c(F)ccc2cc(O)cc(-c3ncc4c(NCc5cc(C(=O)N(C)C)n(C6CS(=O)(=O)C6)n5)nc(OC[C@@]56CCCN5C[C@H](F)C6)nc4c3F)c12 [Example 692, 1-(1,1-dioxidothietan-3-yl)-3-(((7-(8-ethyl-7-fluoro-3-hydroxynaphthalen-1-yl)-8-fluoro-2-(((2R,7aS)-2-fluorohexahydro-1H-pyrrolizin-7a-yl)methoxy)pyrido[4,3-d]pyrimidin-4-yl)amino)methyl)-N,N-dimethyl-1H-pyrazole-5-carboxamide] | – | – | – | 7030 | > 10000
CCc1cccc2cccc(-c3ncc4c(C5CCCCC5)nc(OCC56CCCN5CCC6)nc4c3F)c12 [Example 722, 4-cyclohexyl-7-(8-ethylnaphthalen-1-yl)-8-fluoro-2-((hexahydro-1H-pyrrolizin-7a-yl)methoxy)pyrido[4,3-d]pyrimidine] | > 100000 | 30000 | 42900 | – | –
CCc1c(F)ccc2cc(O)cc(-c3ncc4c(NCc5cn(C(=O)N(C)C)nc5NC(=O)C5CCC5O)nc(OC[C@@]56CCCN5C[C@H](F)C6)nc4c3F)c12 (stereo partly drawn) [Example 819, 4-(((7-(8-ethyl-7-fluoro-3-hydroxynaphthalen-1-yl)-8-fluoro-2-(((2R,7aS)-2-fluorotetrahydro-1H-pyrrolizin-7a(5H)-yl)methoxy)pyrido[4,3-d]pyrimidin-4-yl)amino)methyl)-3-(2-hydroxycyclobutane-1-carboxamido)-N,N-dimethyl-1H-pyrazole-1-carboxamide] | 1130 | 86 | 24 | – | –

More lines, now with the values ahead:

IC50 (KRas^G12D) [nM] | IC50 (KRas^G12R) [nM] | IC50 (KRas^G12V) [nM] | IC50 [1] [nM] | IC50 [2] [nM] | SMILES
4970 | 656 | 431 | – | – | CCc1c(F)ccc2cc(O)cc(-c3ncc4c(CCc5ccnn5C)nc(OC[C@@]56CCCN5C[C@H](F)C6)nc4c3F)c12 [Example 545, 5-ethyl-6-fluoro-4-(8-fluoro-2-(((2R,7aS)-2-fluorotetrahydro-1H-pyrrolizin-7a(5H)-yl)methoxy)-4-(2-(1-methyl-1H-pyrazol-5-yl)ethyl)pyrido[4,3-d]pyrimidin-7-yl)naphthalen-2-ol]
– | – | – | 1140 | 3620 | CCc1c(F)ccc2cc(O)cc(-c3ncc4c(N5CCCC(C6CCNC6=O)C5)nc(OC[C@@]56CCCN5C[C@H](F)C6)nc4c3F)c12 (stereo partly drawn) [Example 616, 3-(1-(7-(8-ethyl-7-fluoro-3-hydroxynaphthalen-1-yl)-8-fluoro-2-(((2R,7aS)-2-fluorohexahydro-1H-pyrrolizin-7a-yl)methoxy)pyrido[4,3-d]pyrimidin-4-yl)piperidin-3-yl)pyrrolidin-2-one]
– | – | – | > 10000 | > 10000 | CCc1c(F)ccc2cc(O)cc(-c3ncc4c(N5CC6OCCN(C(C)=O)C6C5)nc(OC[C@@]56CCCN5C[C@H](F)C6)nc4c3F)c12 (stereo partly drawn) [Example 623, 1-(6-(7-(8-ethyl-7-fluoro-3-hydroxynaphthalen-1-yl)-8-fluoro-2-(((2R,7aS)-2-fluorotetrahydro-1H-pyrrolizin-7a(5H)-yl)methoxy)pyrido[4,3-d]pyrimidin-4-yl)hexahydropyrrolo[3,4-b][1,4]oxazin-4(4aH)-yl) ethan-1-one]
– | – | – | 516 | 747 | CCc1c(F)ccc2cccc(-c3ncc4c(N5C[C@@H]6C[C@H](C5)[C@H](O)C6)nc(OC[C@@]56CCCN5C[C@H](F)C6)nc4c3F)c12 [Example 754, (1R,5R,6R)-3-(7-(8-ethyl-7-fluoronaphthalen-1-yl)-8-fluoro-2-(((2R,7aS)-2-fluorohexahydro-1H-pyrrolizin-7a-yl)methoxy)pyrido[4,3-d]pyrimidin-4-yl)-3-azabicyclo[3.2.1]octan-6-ol]
4190 | 1320 | 1050 | – | – | CCc1c(F)ccc2cc(OC)cc(-c3ncc4c(N5C[C@@H]6C[C@H](C5)[C@H](O)C6)nc(OC[C@@]56CCCN5C[C@H](F)C6)nc4c3F)c12 [Example 777, (1R,5R,6R)-3-(7-(8-ethyl-7-fluoro-3-methoxynaphthalen-1-yl)-8-fluoro-2-(((2R,7aS)-2-fluorohexahydro-1H-pyrrolizin-7a-yl)methoxy)pyrido[4,3-d]pyrimidin-4-yl)-3-azabicyclo[3.2.1]octan-6-ol]
66900 | 62900 | 34000 | – | – | O[C@@H]1C[C@H]2C[C@@H]1CN(c1nc(OC[C@@]34CCCN3C[C@H](F)C4)nc3c(F)c(-c4cccc5cc(C(F)F)ccc45)ncc13)C2 [Example 841, (1R,5R,6R)-3-(7-(6-(difluoromethyl)naphthalen-1-yl)-8-fluoro-2-(((2R,7aS)-2-fluorotetrahydro-1H-pyrrolizin-7a(5H)-yl)methoxy)pyrido[4,3-d]pyrimidin-4-yl)-3-azabicyclo[3.2.1]octan-6-ol]
